Assay results: patent US12414995B2, “Bifunctional compounds comprising Apcin-A and their use in the treatment of cancer” (Northwestern University, priority 2019, dated 2025)
Blank lines part the entries; values can stand above or below the compound they belong to.

Legend:
[1] = biological target: T1, Cdc20 (Homo sapiens, UniProt Q12834); assay: Cdc20 ubiquitylation (immunoprecipitation, anti-ubiquitin immunoblot) in MDA-MB-231 cells; conditions: 2 μM, with MG-132
Procedure: Cdc20 were immunoprecipitated by antibody against Cdc20 followed by immunoblotting using anti-ubiquitin antibody.
Beads were then boiled for 5 min and analyzed by SDS/PAGE. Western blotting was performed according to standard protocols.
To confirm the CP5V-induced degradation of Cdc20 is mediated through the ubiquitin-proteasome pathway, the Cdc20 ubiquitylation in the absence and presence of CP5V as well as Apcin-A was measured.

[2] = biological target: T1, Cdc20; assay: Cdc20 degradation by Western blotting in MCF-7 cells; conditions: various dosages
Procedure: (§5) MCF-7, MDA-MB-231 cells were cultured in DMEM medium supplemented with 10% fetal bovine serum (FBS) and 1% penicillin-streptomycin. Flag-Cdc20 MDA-MB-231 cells were cultured in complete DMEM media introduced before with 1 μg/ml Tamoxifen. The Cdc20, cyclin-B and actin antibodies were purchased from Sigma. The actin antibodies were diluted 1:5000. The Cdc20, Cyclin-B and ubiquitin antibodies were diluted 1:1000. The agarose beads were purchased from Cell Signaling Technology.
(§6) The lysates were analyzed by SDS/PAGE. Western blotting was performed by transferring samples onto a nitrocellulose membrane, incubating in 5% milk in TBST (Tris-buffered Saline with Tween 20) at room temperature for 1 h and probing with indicated antibody overnight at 4° C. Membranes were visualized using the ECL prime western blotting detection reagent (GE Healthcare, RPN2232).
(§7) The time course for CP5V-induced Cdc20 degradation was also measured in both cell lines.

[3] = system: MDA-MB-231 cells; assay: Cell cycle analysis by flow cytometry in MDA-MB-231 cells; format: cell-based; conditions: for mitotic arrest: double-thymidine synchronized
Procedure: . In this example, cell cycle analysis of MDA-MB-231 cells was performed after CP5V treatment. The MDA-MB-231 cells were initially synchronized by double-thymidine followed by treatment with CP5V for 16 hours. Cell cycle profile was then measured by flow cytometry.
(§1) Flow cytometry analysis. MDA-MB-231 and MDA-MB-435 cells were plated in a 6-cm dish and double-synchronized for 18 h and then 15 h with a 9-hour release with fresh medium between them. The cells were released and treated with DMSO, Apcin and CP5V at indicated concentrations for 24 h. After treatment, the cells were collected and stained with propidium iodide (PI) staining buffer and analyzed by flow cytometry.
(§2) Given that Cdc20-APC/C regulates mitotic progression through proteolysis of securin and cyclin B1, CP5V-mediated degradation of Cdc20 was examined for resultant changes of the protein level of securin and cyclin B1. […]. […]

[4] = system: MDA-MB-435 cells; assay: Cell cycle analysis by flow cytometry in MDA-MB-435 cells; format: cell-based; conditions: for mitotic arrest: synchronized
Procedure: as §1, §2

[5] = system: Cdc20 mRNA; assay: Cdc20 RNA level by qRT-PCR in MDA-MB-231 cells; format: cell-based; conditions: indicated dosages, 10 hours
Procedure: MDA-MB-231 cells treated with CP5V at indicated dosages for 10 hours were harvested for RNA extraction, reverse-transcription, and further qRT-PCR.
To further confirm the conclusion that the CP5V-medicated degradation is depending on the ubiquitin-proteasome system, RT-PCR was conducted to measure the alteration of Cdc20 RNA levels in response to CP5V treatment.

[6] = system: cyclin B1; assay: Cyclin B1 level by Western blotting in MDA-MB-231 cells; format: cell-based; conditions: indicated dose, 10 hours
Procedure: […]. Cdc20 and cyclin-B levels were then determined by Western blotting.
as §2

[7] = system: MCF7 cells; assay: Clonogenic assay in MCF7 cells; conditions: 1 μM for 24 hours, then culture 2 weeks
Excerpt: Data are presented as the mean±standard error of the mean (S.E.) of three independent samples (**p<0.01).

[8] = system: MDA-MB-435 cells; assay: Cell proliferation CCK8 assay in MDA-MB-435 cells; format: cell-based; conditions: Homo sapiens, 72 h, read-out: IC50 of cell growth inhibition
Excerpt: (§3) Cell proliferation assays.

[9] = system: 22Rv1 cells; assay: Cell survival CCK8 assay in 22Rv1 cells; conditions: 72 hours
Procedure: (§8) The test was performed in triplicate (n=3). Data are mean±SEM.

[10] = system: 4T1 xenograft tumor; assay: Mouse 4T1 xenograft model; conditions: 100 mg/kg intraperitoneally twice per week
Procedure: In this model, 5×10^5 cells 4T1 cells in PBS were injected into the Balb/C mice mammary fat pad. When tumors were palpable, tumor growth was measured for 3 weeks and calculated as 0.52xLXWxW (L=Length, W=Width). […] The mice were sacrificed at the end of treatment, and the xenograft tumor was collected, formalin fixed, paraffin embedded, sectioned. Immunohistochemistry (IHC) was conducted with xenograft tumor and liver tissues to detect Cdc20, Ki67, Activate and Caspase-3.

[11] = system: MDA-MB-435 eb cells; assay: cells; conditions: Homo sapiens, MDA-MB-435, read-out: growth inhibition
[12] = system: MDA-MB-231 cells; assay: Cell proliferation CCK8 assay in MDA-MB-231 cells; format: cell-based; conditions: Homo sapiens, 72 h, read-out: IC50 of cell growth inhibition
Excerpt: as §3

[13] = system: Tamoxifen-resistant breast cancer cells; assay: Endocrine response of Tamoxifen-resistant breast cancer cells; format: cell-based
[14] = system: MDA-MB-435 eb cells
[15] = system: LNCaP cells; assay: Cell survival CCK8 assay in LNCaP cells; conditions: 72 hours
Procedure: as §8

[16] = system: U2OS cells; assay: Cell survival CCK8 assay in U2OS cells; conditions: 72 hours
Procedure: as §8

[17] = system: HIF1α; assay: HIF1α accumulation by Western blot in MDA-MB-231 cells; format: cell-based; conditions: 10 hours; for HIF1α level: indicated dosages
Procedure: (§4) MDA-MB-231 cells treated with CP5V at indicated dosages for 10 hours were harvested for Western Blot.
MDA-MB-231 cells treated with VHL Ligand 1 at indicated dosages for 10 hours and collected for WB.
Relatively high potential dosage of VHL ligand 1 (VHL1), the VHL-binding moiety offered by CP5V, causes concern if it affects HIF1α, the substrate of VHL.

[18] = system: Cdc27; assay: Cdc27 protein level by Western blot in MDA-MB-231 cells (specificity); format: cell-based; conditions: indicated dosages, 10 hours
Procedure: as §4
To test the specificity for CP5V in targeting Cdc20, the dosage experiment based on MDA-MB-231 cells was repeated and the alteration of protein levels for Cdc20 and Cdc27, another core subunit of anaphase-promoting complex, was measured.

[19] = biological target: T1, Cdc20; assay: Cdc20 degradation by Western blotting in MDA-MB-231 cells; conditions: MLN4924 5 μM with CP5V, 10 hours
Procedure: as §5, §6, §7

T1 sequence (Q12834 whole entry): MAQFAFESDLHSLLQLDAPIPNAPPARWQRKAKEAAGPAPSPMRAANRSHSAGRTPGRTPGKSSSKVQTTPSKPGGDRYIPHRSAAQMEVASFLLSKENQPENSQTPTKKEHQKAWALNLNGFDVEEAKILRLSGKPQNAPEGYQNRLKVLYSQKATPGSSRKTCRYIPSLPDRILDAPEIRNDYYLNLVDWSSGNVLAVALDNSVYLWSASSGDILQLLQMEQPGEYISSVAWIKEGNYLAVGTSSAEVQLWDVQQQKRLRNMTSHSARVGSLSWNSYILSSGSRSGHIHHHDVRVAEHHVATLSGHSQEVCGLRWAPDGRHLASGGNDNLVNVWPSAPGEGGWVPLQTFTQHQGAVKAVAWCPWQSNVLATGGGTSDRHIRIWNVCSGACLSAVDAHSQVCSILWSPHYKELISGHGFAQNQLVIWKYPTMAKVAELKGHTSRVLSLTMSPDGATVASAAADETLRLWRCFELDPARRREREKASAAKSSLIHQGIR

Cdc20 ubiquitylation [1]: no obvious effect
Cdc20 protein level (degradation) [2]: no degradation of Cdc20
SMILES: NCCCOC(=O)NC(Nc1ncccn1)C(Cl)(Cl)Cl (centres unmarked) [Apcin-A, 3-aminopropyl (2,2,2-trichloro-1-(pyrimidin-2-ylamino)ethyl)carbamate]

SMILES: Cc1ncc([N+](=O)[O-])n1CCOC(=O)NC(Nc1ncccn1)C(Cl)(Cl)Cl (centres unmarked) [Apcin]
mitotic arrest [3]: no effect
mitotic arrest [4]: no effect

SMILES: Cc1ncsc1-c1ccc(CNC(=O)[C@@H]2C[C@@H](O)CN2C(=O)[C@H](NC(=O)CCOCCOCCOCCOCCOCCC(=O)NCCCOC(=O)NC(Nc2ncccn2)C(Cl)(Cl)Cl)C(C)(C)C)cc1 (stereo partly drawn) [CP5V, (R)-25-((2S,4R)-4-hydroxy-2-((4-(4-methylthiazol-5-yl)benzyl)carbamoyl)pyrrolidine-1-carbonyl)-26,26-dimethyl-5,23-dioxo-8,11,14,17,20-pentaoxa-4,24-diazaheptacosyl (2,2,2-trichloro-1-(pyrimidin-2-ylamino)ethyl)carbamate]
cells arrested in the G2/M phase ([3]; 2 μM): over 40%
fraction of cells in the G0/G1 phase ([3]; 2 μM, versus control cells): much lower compared to control cells
mitotic arrest [3]: induces mitotic arrest
Cdc20 mRNA level [5]: no significant change
cyclin B1 level [6]: largely accumulated
colony formation (killing of breast cancer cells) [7]: potent efficacy in killing breast cancer cells
IC50 [8]: 1990 nM
inhibition of cell growth [9]: significant inhibition of cell growth
Cdc20 expression in the xenograft tumor (IHC) [10]: decreased Cdc20 expression
Ki67 index in the tumor (IHC) [10]: decreasing the Ki67 index
effect on mice body weight [10]: no significant effect
expression of caspase-3 in the tumor (IHC) [10]: did not change dramatically
liver toxicity [10]: no significant effect
reduction of the size of the xenograft tumor compared to placebo ([10]; Balb/C mice): approximately 70%
reduction of the weight of the xenograft tumor compared to placebo ([10]; Balb/C mice): approximately 70%
inhibition at 5 µM [11]: > 50%
IC50 [12]: 2600 nM
cells arrested in the G2/M phase ([4]; 2 μM): > 50%
fraction of cells in the G0/G1 phase ([4]; 2 μM, versus control cells): much lower compared to control cells
mitotic arrest [4]: induces mitotic arrest
re-sensitization to Tamoxifen [13]: re-sensitizes Tamoxifen-resistant breast cancer cells to Tamoxifen treatment
Taxol-cytotoxic response of Taxol-resistant cells ([14]; with 5 nM paclitaxel): significantly restored their Taxol-cytotoxic response
inhibition of cell growth [15]: significant inhibition of cell growth
inhibition of cell growth [16]: significant inhibition of cell growth
HIF1α level [17]: no obvious alteration of HIF1α
Cdc27 protein level [18]: no Cdc27 protein level change

SMILES: NS(=O)(=O)OC[C@@H]1C[C@@H](n2ccc3c(N[C@H]4CCc5ccccc54)ncnc32)C[C@@H]1O [MLN4924]
effect on CP5V-mediated Cdc20 degradation [19]: inhibited the degradation of Cdc20 caused by CP5V

SMILES: Cc1ncsc1-c1ccc(CNC(=O)[C@@H]2C[C@@H](O)CN2C(=O)[C@@H](N)C(C)(C)C)cc1 [VHL ligand 1]
concentration that induced HIF-α accumulation [17]: ≥ 1 µM
HIF1α level [17]: significant HIF1α is accumulated

SMILES: CC(=O)O[C@H]1C(=O)[C@@]2(C)[C@H]([C@H](OC(=O)c3ccccc3)[C@]3(O)C[C@H](OC(=O)[C@H](O)[C@@H](NC(=O)c4ccccc4)c4ccccc4)C(C)=C1C3(C)C)[C@]1(OC(C)=O)CO[C@@H]1C[C@@H]2O [paclitaxel, reference compound]
inhibition at 0.005 µM [11]: < 10%
cells survived ([14]; 5 nM paclitaxel alone): about 92%
